From PubChem BioAssay AID2060902 (Molecular Pharmacology Branch, DTP, NCI, 2025)

Tested on: 485368-065-R3-J5-PDC spheroids with HUVEC/MSC, viability
Test: Anticancer human tumor 485368-065-R3-J5-PDC patient-derived pancreatic carcinoma cell line growth inhibition [RAS]
Conditions: for IC50: curve of first compound; for viability, T/C: stronger effect = lower value
Procedure, shortened: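 Multi-cell-type spheroids: tumor cells plus HUVEC endothelial cells and mesenchymal stem cells. RAS-pathway inhibitors were combined with targeted agents, each dosed in half-log steps down from clinical Cmax, or from 10 microM when Cmax was unknown.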

[1] = second compound 0.000949 µM, first compound 0.0316 µM
[2] = second compound 0.000949 µM, first compound 0.1 µM
[3] = second compound 0.000949 µM, first compound 0.316 µM
[4] = second compound 0.000949 µM, first compound 1 µM
[5] = second compound 0.000949 µM, first compound 3.16 µM
[6] = second compound 0.000949 µM, first compound 10 µM
[7] = second compound 0.003 µM, first compound 0.0316 µM
[8] = second compound 0.003 µM, first compound 0.1 µM
[9] = second compound 0.003 µM, first compound 0.316 µM
[10] = second compound 0.003 µM, first compound 1 µM
[11] = second compound 0.003 µM, first compound 3.16 µM
[12] = second compound 0.003 µM, first compound 10 µM
[13] = second compound 0.00949 µM, first compound 0.0316 µM
[14] = second compound 0.00949 µM, first compound 0.1 µM
[15] = second compound 0.00949 µM, first compound 0.316 µM
[16] = second compound 0.00949 µM, first compound 1 µM
[17] = second compound 0.00949 µM, first compound 3.16 µM
[18] = second compound 0.00949 µM, first compound 10 µM
[19] = second compound 0.03 µM, first compound 0.0316 µM
[20] = second compound 0.03 µM, first compound 0.1 µM
[21] = second compound 0.03 µM, first compound 0.316 µM
[22] = second compound 0.03 µM, first compound 1 µM
[23] = second compound 0.03 µM, first compound 3.16 µM
[24] = second compound 0.03 µM, first compound 10 µM
[25] = second compound 0.0949 µM, first compound 0.0316 µM
[26] = second compound 0.0949 µM, first compound 0.1 µM
[27] = second compound 0.0949 µM, first compound 0.316 µM
[28] = second compound 0.0949 µM, first compound 1 µM
[29] = second compound 0.0949 µM, first compound 3.16 µM
[30] = second compound 0.0949 µM, first compound 10 µM
[31] = second compound 0.3 µM, first compound 0.0316 µM
[32] = second compound 0.3 µM, first compound 0.1 µM
[33] = second compound 0.3 µM, first compound 0.316 µM
[34] = second compound 0.3 µM, first compound 1 µM
[35] = second compound 0.3 µM, first compound 3.16 µM
[36] = second compound 0.3 µM, first compound 10 µM
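Further: spheroids exposed to agents for seven days before readout.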

Molecule CCN1CCN(Cc2ccc(Nc3ncc(F)c(-c4cc(F)c5nc(C)n(C(C)C)c5c4)n3)nc2)CC1 + C=CC(=O)N1CCN(c2nc(OCC3CCCN3C)nc3c(F)c(-c4nc(N)cc(C)c4C(F)(F)F)c(Cl)cc23)C(C)C1 has an IC50 (second compound 0.00316 µM) of 316 nM, an IC50 (second compound 0.01 µM) of 300 nM and an IC50 (second compound 0.0316 µM) of 454 nM. For the same molecule, the IC50 (second compound 0.1 µM) was 644 nM, the IC50 (second compound 0.316 µM) was 604 nM and the IC50 (second compound 1 µM) was 627 nM. It also gave a viability, T/C (second compound 0.00316 µM, first compound 0.00316 µM) of 107%, a viability, T/C (second compound 0.00316 µM, first compound 0.01 µM) of 95.8% and a viability, T/C (second compound 0.00316 µM, first compound 0.0316 µM) of 82.5%. It also gave a viability, T/C (second compound 0.00316 µM, first compound 0.1 µM) of 61.7%, a viability, T/C (second compound 0.00316 µM, first compound 0.316 µM) of 48.1% and a viability, T/C (second compound 0.00316 µM, first compound 1 µM) of 47%. The viability, T/C (second compound 0.01 µM, first compound 0.00316 µM) was 107%, the viability, T/C (second compound 0.01 µM, first compound 0.01 µM) was 96.7% and the viability, T/C (second compound 0.01 µM, first compound 0.0316 µM) was 81.3%. The viability, T/C (second compound 0.01 µM, first compound 0.1 µM) was 64.3%, the viability, T/C (second compound 0.01 µM, first compound 0.316 µM) was 49.6% and the viability, T/C (second compound 0.01 µM, first compound 1 µM) was 38%. For the same molecule, the viability, T/C (second compound 0.0316 µM, first compound 0.00316 µM) was 106%, the viability, T/C (second compound 0.0316 µM, first compound 0.01 µM) was 98.8% and the viability, T/C (second compound 0.0316 µM, first compound 0.0316 µM) was 82.1%. It also gave a viability, T/C (second compound 0.0316 µM, first compound 0.1 µM) of 73.4%, a viability, T/C (second compound 0.0316 µM, first compound 0.316 µM) of 52.9% and a viability, T/C (second compound 0.0316 µM, first compound 1 µM) of 40.5%. The viability, T/C (second compound 0.1 µM, first compound 0.00316 µM) was 94.8%, the viability, T/C (second compound 0.1 µM, first compound 0.01 µM) was 88.1% and the viability, T/C (second compound 0.1 µM, first compound 0.0316 µM) was 90.1%. For the same molecule, the viability, T/C (second compound 0.1 µM, first compound 0.1 µM) was 76.8%, the viability, T/C (second compound 0.1 µM, first compound 0.316 µM) was 60.2% and the viability, T/C (second compound 0.1 µM, first compound 1 µM) was 43.8%. The viability, T/C (second compound 0.316 µM, first compound 0.00316 µM) was 97.5%, the viability, T/C (second compound 0.316 µM, first compound 0.01 µM) was 96.2% and the viability, T/C (second compound 0.316 µM, first compound 0.0316 µM) was 81%. The viability, T/C (second compound 0.316 µM, first compound 0.1 µM) was 65.5%, the viability, T/C (second compound 0.316 µM, first compound 0.316 µM) was 62.4% and the viability, T/C (second compound 0.316 µM, first compound 1 µM) was 42.7%. For the same molecule, the viability, T/C (second compound 1 µM, first compound 0.00316 µM) was 106%, the viability, T/C (second compound 1 µM, first compound 0.01 µM) was 88.3% and the viability, T/C (second compound 1 µM, first compound 0.0316 µM) was 80.3%. The viability, T/C (second compound 1 µM, first compound 0.1 µM) was 68%, the viability, T/C (second compound 1 µM, first compound 0.316 µM) was 57.3% and the viability, T/C (second compound 1 µM, first compound 1 µM) was 44.8%.
In the case of C[C@@H](NC(=O)c1ncnc(N)c1Cl)c1ncc(C(=O)Nc2cc(C(F)(F)F)c(Cl)cn2)s1 + CCn1c(-c2cc(N3CCN(C)CC3)cnc2C(C)OC)c2c3cc(ccc31)-c1csc(n1)CC(NC(=O)C1CC1C)C(=O)N1CCCC(N1)C(=O)OCC(C)(C)C2, the IC50 (second compound 0.000949 µM) is reported as 31.6 nM, the IC50 (second compound 0.003 µM) is reported as < 31.6 nM and the IC50 (second compound 0.00949 µM) is reported as < 31.6 nM. The IC50 (second compound 0.03 µM) was < 31.6 nM, the IC50 (second compound 0.0949 µM) was < 31.6 nM and the IC50 (second compound 0.3 µM) was < 31.6 nM. The viability, T/C [1] was 41.3%, the viability, T/C [2] was 46.5% and the viability, T/C [3] was 55%. The viability, T/C [4] was 51.5%, the viability, T/C [5] was 45.7% and the viability, T/C [6] was 38%. The viability, T/C [7] was 22.9%, the viability, T/C [8] was 24.4% and the viability, T/C [9] was 26.9%. For the same molecule, the viability, T/C [10] was 28.8%, the viability, T/C [11] was 24.8% and the viability, T/C [12] was 24.8%. The viability, T/C [13] was 15.6%, the viability, T/C [14] was 16.8% and the viability, T/C [15] was 17.4%. For the same molecule, the viability, T/C [16] was 18.4%, the viability, T/C [17] was 18.9% and the viability, T/C [18] was 18.6%. For the same molecule, the viability, T/C [19] was 14%, the viability, T/C [20] was 14.2% and the viability, T/C [21] was 16.5%. The viability, T/C [22] was 16.2%, the viability, T/C [23] was 15.4% and the viability, T/C [24] was 12.7%. For the same molecule, the viability, T/C [25] was 10%, the viability, T/C [26] was 11% and the viability, T/C [27] was 10.4%. The viability, T/C [28] was 11.8%, the viability, T/C [29] was 16.1% and the viability, T/C [30] was 10.8%. For the same molecule, the viability, T/C [31] was 9.44%, the viability, T/C [32] was 10.4% and the viability, T/C [33] was 11.2%. It also gave a viability, T/C [34] of 11%, a viability, T/C [35] of 13.1% and a viability, T/C [36] of 11.4%.
In the case of NC1c2ccccc2OC12CCN(c1cnc3c(N4CCCc5ncccc54)n[nH]c3n1)CC2 (stereo not drawn) + CCn1c(-c2cc(N3CCN(C)CC3)cnc2C(C)OC)c2c3cc(ccc31)-c1csc(n1)CC(NC(=O)C1CC1C)C(=O)N1CCCC(N1)C(=O)OCC(C)(C)C2, the IC50 (second compound 0.000949 µM) is reported as < 31.6 nM, the IC50 (second compound 0.003 µM) is reported as < 31.6 nM and the IC50 (second compound 0.00949 µM) is reported as < 31.6 nM. For the same molecule, the IC50 (second compound 0.03 µM) was < 31.6 nM, the IC50 (second compound 0.0949 µM) was < 31.6 nM and the IC50 (second compound 0.3 µM) was < 31.6 nM. The viability, T/C [1] was 20.7%, the viability, T/C [2] was 16% and the viability, T/C [3] was 14.1%. It also gave a viability, T/C [4] of 10.6%, a viability, T/C [5] of 5.97% and a viability, T/C [6] of 4.14%. For the same molecule, the viability, T/C [7] was 15.1%, the viability, T/C [8] was 12.5% and the viability, T/C [9] was 9.36%. For the same molecule, the viability, T/C [10] was 4.72%, the viability, T/C [11] was 3.77% and the viability, T/C [12] was 1.44%. For the same molecule, the viability, T/C [13] was 12.7%, the viability, T/C [14] was 8.1% and the viability, T/C [15] was 5.43%. For the same molecule, the viability, T/C [16] was 2.3%, the viability, T/C [17] was 2.03% and the viability, T/C [18] was 0.85%. The viability, T/C [19] was 7.1%, the viability, T/C [20] was 6.69% and the viability, T/C [21] was 3.1%. For the same molecule, the viability, T/C [22] was 1.62%, the viability, T/C [23] was 0.67% and the viability, T/C [24] was 0.58%. For the same molecule, the viability, T/C [25] was 6.28%, the viability, T/C [26] was 4.31% and the viability, T/C [27] was 2.01%. It also gave a viability, T/C [28] of 0.85%, a viability, T/C [29] of 0.88% and a viability, T/C [30] of 0.54%. It also gave a viability, T/C [31] of 6.78%, a viability, T/C [32] of 3.56% and a viability, T/C [33] of 2.12%. For the same molecule, the viability, T/C [34] was 1%, the viability, T/C [35] was 0.91% and the viability, T/C [36] was 0.53%.
CCC(CC)c1cc(NC2CCC(N)C2)n2nccc2n1 (stereo not drawn) + CCn1c(-c2cccnc2C(C)OC)c2c3cc(ccc31)N1CCOC(CC(NC(=O)C(C(C)C)N(C)C(=O)C3(F)CCN(C(=O)C#CC(C)(C)N(C)C)CC3)C(=O)N3CCCC(N3)C(=O)OCC(C)(C)C2)C1 gave an IC50 (second compound 0.000949 µM) of 1980 nM, an IC50 (second compound 0.003 µM) of 2010 nM and an IC50 (second compound 0.00949 µM) of 1990 nM. For the same molecule, the IC50 (second compound 0.03 µM) was 2030 nM, the IC50 (second compound 0.0949 µM) was 2040 nM and the IC50 (second compound 0.3 µM) was 2000 nM. For the same molecule, the viability, T/C [1] was 104%, the viability, T/C [2] was 97.3% and the viability, T/C [3] was 116%. For the same molecule, the viability, T/C [4] was 133%, the viability, T/C [5] was 5.59% and the viability, T/C [6] was 9.62%. For the same molecule, the viability, T/C [7] was 102%, the viability, T/C [8] was 109% and the viability, T/C [9] was 116%. The viability, T/C [10] was 133%, the viability, T/C [11] was 5.13% and the viability, T/C [12] was 10.4%. It also gave a viability, T/C [13] of 95.7%, a viability, T/C [14] of 112% and a viability, T/C [15] of 101%. The viability, T/C [16] was 138%, the viability, T/C [17] was 4.94% and the viability, T/C [18] was 11.5%. For the same molecule, the viability, T/C [19] was 104%, the viability, T/C [20] was 103% and the viability, T/C [21] was 112%. For the same molecule, the viability, T/C [22] was 152%, the viability, T/C [23] was 4.96% and the viability, T/C [24] was 11%. For the same molecule, the viability, T/C [25] was 105%, the viability, T/C [26] was 108% and the viability, T/C [27] was 114%. The viability, T/C [28] was 149%, the viability, T/C [29] was 5.12% and the viability, T/C [30] was 10.1%. It also gave a viability, T/C [31] of 108%, a viability, T/C [32] of 111% and a viability, T/C [33] of 120%. The viability, T/C [34] was 123%, the viability, T/C [35] was 4.15% and the viability, T/C [36] was 9.84%.
